± gives the uncertainty stated by the source.
System: ozone
Assay: apparent second-order rate constant for reaction with ozone (kapp,O3) (M-1 s-1); higher = faster oxidation by ozone
Details: pH 7; temperature: 22 C; OH radical scavenger: tBuOH 80 mM; phosphate 4 mM
Protocol: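 Apparent second-order rate constants for reaction with ozone at pH 7 were determined by multicompound competition kinetics. Mixtures of targets and competitors (10 ug/L each) were ozonated in 4 mM phosphate buffer, pH 7, with 80 mM tBuOH as OH-radical scavenger, at 22 ± 1 °C. Peak-area abatement was measured by HPLC-HRMS/MS and k was derived from ln-ln slopes against competitors with known k (R2 > 0.9, >= 10 points, slope 0.1-10). Experiments were run in triplicate on 3 days; the value is the mean over valid competitors ± SD.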

Going from `COC(=O)C(c1ccccc1Cl)N1CCc2sccc2C1` (centres undefined) [Clopidogrel] to `O=C(O)c1ccccc1Nc1c(Cl)cccc1Cl` [Diclofenac carboxylic acid], the “apparent second-order rate constant” value rises from 335000 ± 28000 to 815000 ± 110000.

First: COC(=O)C1C(OC(=O)c2ccccc2)CC2CCC1[N+]2(C)[O-] (centres undefined) [Cocaine-N-oxide]
Second: COC(=O)C1C(OC(=O)c2ccccc2)CC2CCC1N2C (centres undefined) [Cocaine]
The “apparent second-order rate constant” value of the first is lower: less than 0.401 for the first, 3020 ± 260 for the second.

Compared with `COc1ccc2c3c1OC1C(O)C=CC4C(C2)N(C)CCC341` (centres undefined) [Codeine], `CN1CCC23c4c5ccc(O)c4OC2C(O)C=CC3C1C5` (centres undefined) [Morphine] is higher in “apparent second-order rate constant” value: 1.03e+06 ± 88000 for the first, 3.8e+07 ± 8e+06 for the second.

`CC12CCC(=O)C=C1CCC1C2C(=O)CC2(C)C1CCC2(O)C(=O)CO` (centres undefined) [Cortisone] and `CC12CCC(=O)C=C1CCC1C2C(O)CC2(C)C1CCC2(O)C(=O)CO` (centres undefined) [Hydrocortisone] are within error of each other in “apparent second-order rate constant” value: 436 ± 22 for the first, 420 ± 25 for the second.

Compared with `CN1C(=O)CCC1c1cccnc1` (centres undefined) [Cotinine], `CN1CCN2c3ncccc3Cc3ccccc3C2C1` (centres undefined) [Mirtazapine] is higher in “apparent second-order rate constant” value: 2.9 ± 0.3 for the first, 957000 ± 81000 for the second.

Compared with `CCOC(=O)c1c(COCCN)nc(C)c(C(=O)OC)c1-c1ccccc1Cl` [Dehydroamlodipine], `COc1ccc2c(c1)c(CC(=O)O)c(C)n2C(=O)c1ccc(Cl)cc1` [Indomethacin] is higher in “apparent second-order rate constant” value: 55 ± 2.9 for the first, 5.15e+06 ± 670000 for the second.

Going from `C#CCN(C)C(C)Cc1ccccc1` (centres undefined) [Deprenyl] to `CNC(C)C(O)c1ccccc1` (centres undefined) [Ephedrine], the “apparent second-order rate constant” value falls from 930000 ± 81000 to 1720 ± 150.

Going from `Oc1ccc(C(c2ccc(O)cc2)c2ccccn2)cc1` [Desacetylbisacodyl] to `CC(=O)Nc1ccc(S(=O)(=O)Nc2ccccn2)cc1` [N4-Acetylsulfapyridine], the “apparent second-order rate constant” value falls from 2.25e+06 ± 220000 to 947 ± 280.

`COc1ccc([C@@H]2Sc3ccccc3N(CCN(C)C)C(=O)[C@@H]2O)cc1` [Desacetyldiltiazem] and `COc1ccc(C2Sc3ccccc3N(CCN(C)C)C(=O)C2OC(C)=O)cc1` (centres undefined) [Diltiazem] are within error of each other in “apparent second-order rate constant” value: 668000 ± 57000 for the first, 735000 ± 67000 for the second.

Going from `NCC(O)COc1ccc(CC(N)=O)cc1` (centres undefined) [Desisopropylatenolol] to `CC(C)(Oc1ccc(C(=O)c2ccc(Cl)cc2)cc1)C(=O)O` [Fenofibric acid], the “apparent second-order rate constant” value falls from 134 ± 7.4 to 2.8 ± 0.3.

Compared with `Clc1ccc2c(c1)CCc1cccnc1C2=C1CCNCC1` [Desloratadine], `CN1CCN2c3ccccc3Cc3ccccc3C2C1` (centres undefined) [Mianserin] is higher in “apparent second-order rate constant” value: 1960 ± 160 for the first, 1.94e+06 ± 100000 for the second.

`CC(=O)Nc1c(I)c(C(=O)NCC(O)CO)c(I)c(C(=O)N(C)CC(O)CO)c1I` (centres undefined) [Desmethoxyiopromide] and `COCC(=O)Nc1c(I)c(C(=O)NCC(O)CO)c(I)c(C(=O)N(C)CC(O)CO)c1I` (centres undefined) [Iopromide] are within error of each other in “apparent second-order rate constant” value: 1.74 ± 0.19 for the first, 2.14 ± 0.23 for the second.

First: CCC1OC(=O)C(C)C(O)C(C)C(OC2OC(C)CC(N(C)C)C2O)C(C)(O)CC(C)CN(C)C(C)C(O)C1(C)O (centres undefined) [Desosaminylazithromycin]
Second: CCC1OC(=O)C(C)C(OC2CC(C)(OC)C(O)C(C)O2)C(C)C(OC2OC(C)CC(NC)C2O)C(C)(O)CC(C)CN(C)C(C)C(O)C1(C)O (centres undefined) [N-Desmethylazithromycin]
The “apparent second-order rate constant” value of the first is higher: 239000 ± 8000 for the first, 10300 ± 980 for the second.

Compared with `COc1ccc2c(c1)C13CCCCC1C(C2)N(C)CC3` (centres undefined) [Dextromethorphan], `CN1CCC23CCCCC2C1Cc1ccc(O)cc13` (centres undefined) [Dextrorphan] is higher in “apparent second-order rate constant” value: 5580 ± 96 for the first, 1.87e+06 ± 170000 for the second.

First: CC(=O)Nc1c(I)c(NC(C)=O)c(I)c(C(=O)O)c1I [Diatrizoate]
Second: CC(=O)Nc1ccc(S(=O)(=O)Nc2nc(C)cc(C)n2)cc1 [N4-Acetylsulfamethazine]
The “apparent second-order rate constant” value of the first is lower: 230 ± 30 for the first, 815 ± 43 for the second.

First: O=C(O)Cc1ccccc1Nc1c(Cl)cccc1Cl [Diclofenac]
Second: Cc1cccc(Nc2ccccc2C(=O)O)c1C [Mefenamic acid]
The “apparent second-order rate constant” value of the first is lower: 830000 ± 71000 for the first, 1.12e+06 ± 80000 for the second.

First: O=c1nc[nH]c2c1ncn2C1CCC(CO)O1 (centres undefined) [Didanosine]
Second: Nc1ccn([C@@H]2CS[C@H](CO)O2)c(=O)n1 [Lamivudine]
The “apparent second-order rate constant” value of the first is lower: 4.5 ± 0.5 for the first, 61000 ± 14000 for the second.

First: CC(NC(C)(C)C)C(O)c1cccc(Cl)c1 (centres undefined) [Dihydrobupropion]
Second: CC(NC(C)(C)CO)C(=O)c1cccc(Cl)c1 (centres undefined) [Hydroxybupropion]
The “apparent second-order rate constant” value of the first is lower: 162 ± 8.9 for the first, 3630 ± 310 for the second.

Going from `CC(=O)N(C)N(C(=O)C(=O)N(C)C)c1ccccc1` [Dioxypyramidon (AMDOPH)] to `CC(C(=O)O)c1cccc(C(=O)c2ccccc2)c1` (centres undefined) [Ketoprofen], the “apparent second-order rate constant” value rises from less than 0.401 to 0.529 ± 0.016.

First: C[N+](C)(CCOC(c1ccccc1)c1ccccc1)C1OC(C(=O)[O-])C(O)C(O)C1O (centres undefined) [Diphenhydramine-N-glucuronide]
Second: CN(C)CCOC(c1ccccc1)c1ccccc1 [Diphenhydramine]
The “apparent second-order rate constant” value of the first is lower: 3.6 ± 0.4 for the first, 5500 ± 140 for the second.

First: Nc1nc(=O)n(C2CSC(CO)O2)cc1F (centres undefined) [Emtricitabine]
Second: Nc1ccn(C2OC(CO)C(O)C2(F)F)c(=O)n1 (centres undefined) [Gemcitabine]
The “apparent second-order rate constant” value of the first is higher: 79000 ± 70000 for the first, 390 ± 30 for the second.

Compared with `CCCCc1ncc(C=C(Cc2cccs2)C(=O)O)n1Cc1ccc(C(=O)O)cc1` [Eprosartan], `CCCCc1nc(Cl)c(CO)n1Cc1ccc(-c2ccccc2-c2nn[nH]n2)cc1` [Losartan] is lower in “apparent second-order rate constant” value: 1.57e+06 ± 140000 for the first, 198000 ± 16000 for the second.

Going from `O=C1CC(c2ccc(O)c(O)c2)Oc2cc(O)cc(O)c21` (centres undefined) [Eriodictyol] to `COc1ccc(C2CC(=O)c3c(O)cc(O)cc3O2)cc1O` (centres undefined) [Hesperitin], the “apparent second-order rate constant” value rises from 1.8e+07 ± 4e+06 to 3.3e+07 ± 7e+06.

Compared with `CC(C)OC(=O)C(C)(C)Oc1ccc(C(=O)c2ccc(Cl)cc2)cc1` [Fenofibrate], `CN(C=O)CCC(Oc1ccc(C(F)(F)F)cc1)c1ccccc1` (centres undefined) [Fluoxetine formamide] is higher in “apparent second-order rate constant” value: 1.27 ± 0.17 for the first, 2.7 ± 0.3 for the second.

First: CC(C)(C(=O)O)c1ccc(C(O)CCC[N+]2([O-])CCC(C(O)(c3ccccc3)c3ccccc3)CC2)cc1 (centres undefined) [Fexofenadine-N-oxide]
Second: CC(C)(C(=O)O)c1ccc(C(O)CCCN2CCC(C(O)(c3ccccc3)c3ccccc3)CC2)cc1 (centres undefined) [Fexofenadine]
The “apparent second-order rate constant” value of the first is lower: 11.9 ± 1.3 for the first, 2950 ± 260 for the second.

Compared with `CNCCC(Oc1ccc(C(F)(F)F)cc1)c1ccccc1` (centres undefined) [Fluoxetine], `CCC(=O)C(CC(C)N(C)C)(c1ccccc1)c1ccccc1` (centres undefined) [Methadone] is higher in “apparent second-order rate constant” value: 1720 ± 50 for the first, 4250 ± 360 for the second.

Going from `O=C1CC2(CCCCC2)CN1` [Gabapentin-lactam] to `NCC1(CC(=O)O)CCCCC1` [Gabapentin], the “apparent second-order rate constant” value rises from 1.51 ± 0.16 to 11.4 ± 1.2.

First: NS(=O)(=O)c1cc2c(cc1Cl)NCNS2(=O)=O [Hydrochlorothiazide]
Second: CC(C)NC(=O)NS(=O)(=O)c1cnccc1Nc1cccc(CO)c1 [Hydroxytorasemide]
The “apparent second-order rate constant” value of the first is higher: 3000 ± 300 for the first, 850 ± 70 for the second.

Going from `C1=Cc2ccccc2Nc2ccccc21` [Iminostilbene] to `NC(=O)N1c2ccccc2CC(O)c2ccccc21` (centres undefined) [Licarbazepine], the “apparent second-order rate constant” value falls from 7.6e+07 ± 1.7e+07 to 10.9 ± 1.2.

Compared with `CNC1(c2ccccc2Cl)CCCCC1=O` (centres undefined) [Ketamine], `COC(=O)C(c1ccccc1)C1CCCCN1` (centres undefined) [Methylphenidate] is lower in “apparent second-order rate constant” value: 10400 ± 1000 for the first, 4300 ± 360 for the second.

Compared with `Nc1nc(N)[n+]([C@@H]2O[C@H](C(=O)O)[C@@H](O)[C@H](O)[C@H]2O)nc1-c1cccc(Cl)c1Cl` [Lamotrigine-N2-glucuronide], `Nc1nnc(-c2cccc(Cl)c2Cl)c(N)n1` [Lamotrigine] is lower in “apparent second-order rate constant” value: 371 ± 20 for the first, 17.1 ± 1.2 for the second.

`CCC(C(=O)O)N1CCCC1=O` (centres undefined) [Levetiracetam acid] and `CCC(C(N)=O)N1CCCC1=O` (centres undefined) [Levetiracetam] are within error of each other in “apparent second-order rate constant” value: 0.66 ± 0.08 for the first, 0.81 ± 0.09 for the second.

Going from `CCNCC(=O)Nc1c(C)cccc1C` [Lidocaine-N-desethyl] to `CCN(CC)CC(=O)Nc1c(C)cccc1C` [Lidocaine], the “apparent second-order rate constant” value rises from 17000 ± 1700 to 185000 ± 17000.

Compared with `CC[N+]([O-])(CC)CC(=O)Nc1c(C)cccc1C` [Lidocaine-N-oxide], `CC(=O)Nc1ccc(S(=O)(=O)Nc2ncccn2)cc1` [N4-Acetylsulfadiazine] is higher in “apparent second-order rate constant” value: 10.9 ± 1.2 for the first, 89 ± 4.9 for the second.

Compared with `CC1CC2C(C(O)CC3(C)C2CCC3(O)C(=O)CO)C2(C)C=CC(=O)C=C12` (centres undefined) [Methylprednisolone], `CNCC(c1ccc(O)cc1)C1(O)CCCCC1` (centres undefined) [N,O-Didesmethylvenlafaxine] is higher in “apparent second-order rate constant” value: 87 ± 4.5 for the first, 1.99e+06 ± 120000 for the second.

Going from `C[N+]1([O-])CCN2c3ccccc3Cc3ccccc3C2C1` (centres undefined) [Mianserin-N-oxide] to `CC(=O)Nc1ccc(S(=O)(=O)Nc2nccs2)cc1` [N4-Acetylsulfathiazole], the “apparent second-order rate constant” value rises from 295000 ± 26000 to 1.02e+07 ± 1.2e+06.

Compared with `COc1c(C)c2c(c(O)c1CC=C(C)CCC(=O)O)C(=O)OC2` [Mycophenolic acid], `COc1cc(OC)nc(NS(=O)(=O)c2ccc(NC(C)=O)cc2)n1` [N4-Acetylsulfadimethoxine] is lower in “apparent second-order rate constant” value: 7.2e+07 ± 1.5e+07 for the first, 337000 ± 28000 for the second.

Source: the supplement of paper PMC12490022
